The values that follow are results of earlier work, collected in US20180036237A1, “OIL/SURFACTANT MIXTURES FOR SELF-EMULSIFICATION” (priority 2015, published 2018).

For the data set the following is noted: single surfactant.

On to polyoxyethylene cetostearyl ether, for which the HLB is recorded as 13.5.
